In US9857359B2, “Methods for determining drug efficacy using cereblon-associated proteins” (CELGENE CORPORATION, priority 2012, dated 2018):

Columns and labels:
[1] = system: Aiolos; test: Aiolos protein inhibition in myeloma cells; type: cell-based
[2] = system: Aiolos; test: Aiolos Western blotting of primary human T cells; type: cell-based; conditions: 6 hours and 24 hours
Description: Primary T cells from up to 3 donors were isolated from human leukocytes (Blood Center of New Jersey, East Orange, N.J.) by centrifugation through FICOLL® following the ROSETETTESEP™ protocol (Stem Cell Technologies, Vancouver, Canada). Purified T cells were stimulated with anti-CD3 Antibody (Ebioscience, San Diego, Calif.), drug treated for six hours, harvested and Aiolos and Ikaros protein expression was determined by immunoblot analysis using antibodies against Aiolos (Santa Cruz, Dallas, Tex.) and Ikaros (Millipore, Billerica, Mass.) with our without blocking peptide.

[3] = system: Aiolos; test: Aiolos protein level in B cells from CLL patients and healthy subjects; type: cell-based, human; conditions: B cells obtained from CLL patients as well as healthy subjects
[4] = system: Aiolos; test: Aiolos expression by western blot at 6 hours (FIG. 37); type: cell-based; conditions: 6 hours after the treatment, with varying degrees
[5] = system: Ikaros; test: Ikaros expression by western blot at 6 hours (FIG. 37); type: cell-based; conditions: 6 hours after the treatment, with varying degrees
[6] = system: Aiolos; test: B-CLL / CD40L fibroblast co-culture, Aiolos (Western blot, flow cytometry); type: cell-based, human; conditions: for Aiolos protein level: B-CLL co-culture, 72 hours, 10 μM lenalidomide, 1 μM pomalidomide, 0.1 μM Compound A, 0.1 μM Compound B, 3 patient samples; for Dose dependence of Aiolos inhibition by flow cytometry: three different B-CLL patient co-culture samples
Description: (§1) CD40L expressing fibroblasts (gift from Angela Piperno, Rockefeller University, NY, N.Y.) were maintained in DMEM medium supplied with 20% FBS. Prior to co-cultures CD40L fibroblasts were pre-treated for 3 hours with 10 μg/mL Mytomicin C followed by a wash with PBS and Accutase dissociation. Cells were then re-plated at a density of 6×10^5 cells per well (24 well per plate format) and grown overnight to allow formation of monolayer. […] For long term cultures, half of the culture media was renewed every three days. Alternatively, for other assays, B-CLL cells were co-cultured on CD40L without being pre-stained.
(§2) Effects of compound treatment on CRBN, Aiolos, p21^WAF-1 and IRF4 were evaluated in 3 different patient cell samples (FIG. 56A).

[7] = system: IRF4; test: B-CLL / CD40L fibroblast co-culture Western blot, IRF4; type: cell-based, human; conditions: 72 hours, 10 μM lenalidomide, 1 μM pomalidomide, 0.1 μM Compound A, 0.1 μM Compound B, 3 patient samples
Description: (§3) Human primary B-CLL cells viably frozen from patient samples were obtained from AllCells (Emeryville, Calif., USA) and maintained in Roswell Park Memorial Institute (RPMI)-1640 medium with 10% fetal bovine serum (FBS) (Invitrogen, Carlsbad, Calif.). CD40L expressing fibroblasts (gift from Angela Piperno, Rockefeller University, NY, N.Y.) were maintained in DMEM medium supplied with 20% FBS. Prior to co-cultures CD40L fibroblasts were pre-treated for 3 hours with 10 μg/mL Mytomicin C followed by a wash with PBS and Accutase dissociation. Cells were then re-plated at a density of 6×10^5 cells per well (24 well per plate format) and grown overnight to allow formation of monolayer. Defrosted viable primary B-CLL patient cells were pre-stained with CFSE reagent (Vibrant CFDA SE Cell Tracer Kit, Invitrogen, Carlsbad, Calif., USA) according to a manufacturer's supplied protocol and plated at 0.8-1×10^6 cells per well on the pre-formed monolayer of CD40L fibroblasts in RPMI 1640 medium supplemented with 10% FBS, 5 ng/mL rh-IL4 and 10 ng/mL rh-IL10 (Peprotech, USA). For long term cultures, half of the culture media was renewed every three days. Alternatively, for other assays, B-CLL cells were co-cultured on CD40L without being pre-stained.
(§4) Effects of compound treatment on CRBN, Aiolos, p21^WAF-1 and IRF4 were evaluated in 3 different patient cell samples (FIG. 56A). The three patient samples show similar expression levels of CRBN protein (compare lane 1 of the 3 Western blots in FIG. 56A; samples were run in same membrane even though gels are presented as 3 independent pictures in the figure). […] The effects on p21, IRF4 and Aiolos are consistent with the cell cycle arrest and inhibition of proliferation observed with compound treatment.

[8] = system: p21^WAF-1; test: B-CLL / CD40L fibroblast co-culture Western blot, p21^WAF-1; type: cell-based, human; conditions: 72 hours, 10 μM lenalidomide, 1 μM pomalidomide, 0.1 μM Compound A, 0.1 μM Compound B, 3 patient samples
Description: as §3, §4

[9] = molecular target: CRBN (Homo sapiens, UniProt Q96SW2); test: B-CLL / CD40L fibroblast co-culture Western blot, CRBN; type: cell-based; parameters: endogenous in cells; host or cells: primary B-CLL patient cells co-cultured with CD40L-expressing fibroblasts; conditions: 72 hours, 10 μM lenalidomide, 1 μM pomalidomide, 0.1 μM Compound A, 0.1 μM Compound B, 3 patient samples
Chain of CRBN (Q96SW2 whole entry): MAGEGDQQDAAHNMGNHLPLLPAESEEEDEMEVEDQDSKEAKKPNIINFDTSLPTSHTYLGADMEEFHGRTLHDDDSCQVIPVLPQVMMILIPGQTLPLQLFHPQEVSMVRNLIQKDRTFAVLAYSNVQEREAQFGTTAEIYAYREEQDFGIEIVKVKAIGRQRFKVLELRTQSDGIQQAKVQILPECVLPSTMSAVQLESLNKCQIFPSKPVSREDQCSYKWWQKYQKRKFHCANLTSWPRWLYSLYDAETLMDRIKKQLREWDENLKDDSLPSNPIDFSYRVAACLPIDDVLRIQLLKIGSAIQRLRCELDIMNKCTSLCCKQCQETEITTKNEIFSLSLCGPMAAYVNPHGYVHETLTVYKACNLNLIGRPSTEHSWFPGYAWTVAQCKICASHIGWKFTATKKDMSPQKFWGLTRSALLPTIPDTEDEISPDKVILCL
Description: as §1, §2

SMILES | Aiolos expression [1] | Potency in Aiolos protein inhibition relative to Len [1] | Aiolos expression [2] | Aiolos expression [3] | Aiolos expression [4] | Ikaros expression [5] | Aiolos protein level [6] | Dose dependence of Aiolos inhibition by flow cytometry [6] | IRF4 protein level [7] | p21^WAF-1 protein level [8] | CRBN protein levels [9]
Cc1nc2cccc(N)c2c(=O)n1C1CCC(=O)NC1=O (centres unmarked) [Compound A, 3-(5-amino-2-methyl-4-oxo-4H-quinazolin-3-yl)-piperidine-2,6-dione] | showed inhibitory effect on Aiolos expression | higher potency than Len | showed an inhibitory effect on Aiolos expression | inhibit Aiolos expression | inhibited the expression of both Aiolos and Ikaros | inhibited the expression of both Aiolos and Ikaros | down regulated | dose-dependent inhibition of Aiolos | down regulated | upregulated | do not affect CRBN protein levels or in some samples induce slight increased of CRBN levels
O=C1CC[C@H](N2Cc3c(OCc4ccc(CN5CCOCC5)cc4)cccc3C2=O)C(=O)N1 [Compound B, 3-(4-((4-(morpholinomethyl)benzyl)oxy)-1-oxoisoindolin-2-yl)piperidine-2,6-dione] | showed inhibitory effect on Aiolos expression | higher potency than Len | showed an inhibitory effect on Aiolos expression | inhibit Aiolos expression | inhibited the expression of both Aiolos and Ikaros | inhibited the expression of both Aiolos and Ikaros | down regulated | dose-dependent inhibition of Aiolos | down regulated | upregulated | do not affect CRBN protein levels or in some samples induce slight increased of CRBN levels
Nc1cccc2c1CN(C1CCC(=O)NC1=O)C2=O (centres unmarked) [lenalidomide] | – | – | – | – | – | – | – | – | down regulated | upregulated | –
Nc1cccc2c1C(=O)N(C1CCC(=O)NC1=O)C2=O (centres unmarked) [pomalidomide, reference compound] | showed inhibitory effect on Aiolos expression | higher potency than Len | showed an inhibitory effect on Aiolos expression | inhibit Aiolos expression | inhibited the expression of both Aiolos and Ikaros | inhibited the expression of both Aiolos and Ikaros | down regulated | dose-dependent inhibition of Aiolos | down regulated | upregulated | do not affect CRBN protein levels or in some samples induce slight increased of CRBN levels
